Patent US4894458A, “Quinolonecarboxylic acid derivatives and their preparation” (Kyorin Pharmaceutical Co., Ltd., priority 1986, dated 1990)
Like-named read-outs stand apart in the source and are kept apart here.

Experiments:
Type in all cases: cell-based
[1] = test system: B. thetaiotaomicron (0661); assay: In vitro antibacterial activity (anaerobic bacteria), MIC; conditions: Bacteroides thetaiotaomicron
[2] = test system: Clostridium difficile I-E; assay: as above; conditions: Clostridioides difficile
[3] = test system: Eubacterium lentum GAI 5242; assay: as above; conditions: Eggerthella lenta, GAI5242
[4] = test system: Yersinia enterocolitica IID 981; assay: microbe, parasite or virus in culture; conditions: IID981
B. fragilis 25285 = assay: In vitro antibacterial activity (anaerobic bacteria), MIC; conditions: Bacteroides fragilis
P. aeruginosa IFO 12689 = assay: In vitro antibacterial activity (aerobic bacteria), MIC; conditions: Pseudomonas aeruginosa, IFO12689
[5] = test system: Escherichia coli NIHJ JC-2; assay: as above; conditions: NIHJJC2, aerobic, Gram -, 10^6 cells/ml
[6] = test system: Enterobacter cloacae IID 977; assay: as above
P. maltophilia GIFU 2491 = assay: as above; conditions: Stenotrophomonas maltophilia, GIFU2491
Pst micros UPI 5464-1 = assay: microbe, parasite or virus in culture
C. perfringens KYA 13123 = assay: microbe, parasite or virus in culture; conditions: Clostridium perfringens, KYA13123
P. cepacia GIFU 518 = assay: In vitro antibacterial activity (aerobic bacteria), MIC; conditions: Burkholderia cepacia, GIFU518
[7] = test system: Bacillus subtilis PCI 219; assay: as above
B. fragilis 0558 = assay: In vitro antibacterial activity (anaerobic bacteria), MIC; conditions: Bacteroides fragilis
B. distasonis 8503 = assay: as above; conditions: Parabacteroides distasonis, Gram -, 10^6 cells/ml
[8] = test system: Bacteroides fragilis GM 7000; assay: as above
[9] = test system: Citrobacter freundii IID 976; assay: In vitro antibacterial activity (aerobic bacteria), MIC; conditions: Citrobacter freundii
P. aeruginosa IID 1210 = assay: as above; conditions: Pseudomonas aeruginosa, IID1210, aerobic, Gram -, 10^6 cells/ml
[10] = test system: Peptostreptococcus anaerobius KYA 27337; assay: In vitro antibacterial activity (anaerobic bacteria), MIC
[11] = test system: Acinetobacter anitratus IID 876; assay: In vitro antibacterial activity (aerobic bacteria), MIC; conditions: Acinetobacter calcoaceticus, IID876, Gram -, 10^6 cells/ml, read-out: MIC
Description: (§1) Minimal inhibitory concentrations (MICs) were determined in accordance with the method recommended by Japan Society of Chemotherapy.

[12] = test system: Pseudomonas aeruginosa V-1; assay: as above; conditions: Pseudomonas aeruginosa, V1, aerobic; Gram -; 10^6 cells/ml; read-out: MIC
Description: as §1

S. epidermidis IID 866 = assay: as above; conditions: Staphylococcus epidermidis, IID866, Gram +, 10^6 cells/ml
Description: as §1

[13] = test system: Staphylococcus aureus 209 P; assay: as above; conditions: Gram +, 10^6 cells/ml
Description: as §1

[14] = test system: Morganella morganii IID 602; assay: as above; conditions: Morganella morganii, IID602, Gram -, 10^6 cells/ml, read-out: MIC
Description: as §1

E. coli ATCC 10536 = assay: as above; conditions: Escherichia coli, ATCC10536, Gram -, 10^6 cells/ml
Description: as §1

[15] = test system: Proteus vulgaris IFO 3167; assay: as above; conditions: IFO3167, Gram -, 10^6 cells/ml
Description: as §1

Shigella sonnei IID 969 = assay: as above; conditions: IID969, Gram -, 10^6 cells/ml
Description: as §1

[16] = test system: S. aureus IID 670 (Terajima); assay: as above; conditions: Staphylococcus aureus, IID670, Gram +, 10^6 cells/ml
Description: as §1

K. pneumoniae 1-220S = assay: as above; conditions: Klebsiella pneumoniae, 1220S, Gram -, 10^6 cells/ml
Description: as §1

[17] = test system: Serratia marcescens IID 618; assay: as above; conditions: IID618, Gram -, 10^6 cells/ml
Description: as §1

P. mirabilis IID 994 = assay: as above; conditions: Proteus mirabilis, IID994, Gram -, 10^6 cells/ml
Description: as §1

[18] = test system: Veillonella parvula KYA 10790; assay: In vitro antibacterial activity (anaerobic bacteria), MIC
[19] = test system: Alcaligenes faecalis 0114002; assay: In vitro antibacterial activity (aerobic bacteria), MIC; conditions: Alcaligenes faecalis, 0114002, aerobic, Gram -, 10^6 cells/ml
C. ramosum = assay: In vitro antibacterial activity (anaerobic bacteria), MIC; conditions: Thomasclavelia ramosa
F. varium KYA 8501 = assay: as above; conditions: Fusobacterium varium, KYA8501
[20] = test system: Klebsiella pneumoniae KY(GN)6445; assay: In vitro antibacterial activity (aerobic bacteria), MIC
[21] = test system: Peptococcus magnus KY 017; assay: In vitro antibacterial activity (anaerobic bacteria), MIC; conditions: Finegoldia magna, KY017, Gram +, 10^6 cells/ml, read-out: MIC
Description: as §1

[22] = test system: Salmonella enteritidis IID 604; assay: In vitro antibacterial activity (aerobic bacteria), MIC; conditions: Salmonella enterica
[23] = test system: Propionibacterium acens 11828; assay: In vitro antibacterial activity (anaerobic bacteria), MIC
[24] = test system: Fusobacterium necrophorum S-45; assay: as above
[25] = IID976, aerobic, Gram -, 10^6 cells/ml
[26] = anaerobic, Gram +, 10^6 cells/ml
[27] = anaerobic, Gram -, 10^6 cells/ml, read-out: MIC
[28] = anaerobic, Gram +, 10^6 cells/ml, read-out: MIC
[29] = aerobic, Gram -, 10^6 cells/ml, read-out: MIC

Measured: MIC

Cc1c(N2C[C@@H](C)[C@H](N)C2)c(F)cc2c(=O)c(C(=O)O)cn(C3CC3)c12 (relative stereo) [Ex. 27, 7-(3,4-trans-3-Amino-4-methyl-1-pyrrolidinyl)-1-cyclopropyl-6-fluoro-1,4-dihydro-8-methyl-4-oxo-3-quinolinecarboxylic acid]
0.2 µg/mL: [1] | P. cepacia GIFU 518 | [10]; KYA27337 | [12]
0.0063 µg/mL: [5] | [9]; [25] | E. coli ATCC 10536 | [15] | Shigella sonnei IID 969
0.78 µg/mL: F. varium KYA 8501 | [23]
0.05 µg/mL: [3] | B. fragilis 25285 | P. maltophilia GIFU 2491 | Pst micros UPI 5464-1 | B. fragilis 0558 | S. epidermidis IID 866 | [14] | [17]
0.0125 µg/mL: [7]; PCI219 | [20]
0.39 µg/mL: [2] | P. aeruginosa IFO 12689 | B. distasonis 8503 | P. aeruginosa IID 1210 | C. ramosum; [26]
0.1 µg/mL: C. perfringens KYA 13123 | [8]; GM7000 | [18]; KYA10790 | [19]
0.025 µg/mL: [4] | [6]; IID977 | [11] | [13] | [16] | K. pneumoniae 1-220S | P. mirabilis IID 994 | [21] | [22]

Cc1c(N2CCC(N)C2)c(F)cc2c(=O)c(C(=O)O)cn(C3CC3)c12 (centres unmarked) [Exp. 18, 7-(3-Amino-1-pyrrolidinyl)-1-cyclopropyl-6-fluoro-1,4-dihydro-8-methyl-4-oxo-3-quinolinecarboxylic acid]
0.39 µg/mL: B. distasonis 8503; read-out: MIC
0.0125 µg/mL: E. coli ATCC 10536 | [15] | Shigella sonnei IID 969 | P. mirabilis IID 994
≤ 0.0032 µg/mL: [5]; read-out: MIC
0.025 µg/mL: [6]; IID977, aerobic, Gram -, 10^6 cells/ml, read-out: MIC | [7]; PCI219, aerobic, Gram +, 10^6 cells/ml, read-out: MIC | [9]; IID976, aerobic, Gram -, 10^6 cells/ml, read-out: MIC | [20]; [29] | [22]; [29]
0.2 µg/mL: [3]; [28] | B. fragilis 25285; [27] | P. aeruginosa IFO 12689; [29] | P. cepacia GIFU 518; [29] | [8]; GM7000, anaerobic, Gram -, 10^6 cells/ml, read-out: MIC | P. aeruginosa IID 1210; read-out: MIC
0.1 µg/mL: P. maltophilia GIFU 2491; [29] | Pst micros UPI 5464-1; [28] | B. fragilis 0558; [27] | [24]; S45, anaerobic, Gram -, 10^6 cells/ml, read-out: MIC | [10]; KYA27337, anaerobic, Gram +, 10^6 cells/ml, read-out: MIC | [18]; KYA10790, anaerobic, Gram -, 10^6 cells/ml, read-out: MIC | [19]; read-out: MIC
0.78 µg/mL: [1]; [27] | [2]; [28] | F. varium KYA 8501; [27] | [23]; [28]
0.05 µg/mL: [4] | C. perfringens KYA 13123 | [11] | [12] | S. epidermidis IID 866 | [13] | [14] | [16] | K. pneumoniae 1-220S | [17] | [21]
1.56 µg/mL: C. ramosum

Cc1c(N2C[C@@H](C)[C@@H](N)C2)c(F)cc2c(=O)c(C(=O)O)cn(C3CC3)c12 (relative stereo) [Ex. 28, 7-(3,4-cis-3-Amino-4-methyl-1-pyrrolidinyl)-1-cyclopropyl-6-fluoro-1,4-dihydro-8-methyl-4-oxo-3-quinolinecarboxylic acid]
0.78 µg/mL: C. ramosum; [26] | F. varium KYA 8501 | [23]
0.025 µg/mL: [6]; IID977 | [13] | [14] | [16] | P. mirabilis IID 994 | [21] | [22]
0.39 µg/mL: [2] | P. aeruginosa IFO 12689 | P. cepacia GIFU 518; aerobic, Gram -, 10^6 cells/ml | B. distasonis 8503 | P. aeruginosa IID 1210
0.2 µg/mL: [1] | [8]; GM7000 | [10]; KYA27337
0.05 µg/mL: [3] | Pst micros UPI 5464-1 | [11] | S. epidermidis IID 866 | K. pneumoniae 1-220S | [17]
0.0063 µg/mL: [5] | E. coli ATCC 10536 | [15] | Shigella sonnei IID 969
0.1 µg/mL: B. fragilis 25285 | P. maltophilia GIFU 2491 | C. perfringens KYA 13123 | B. fragilis 0558 | [12] | [18]; KYA10790 | [19]
0.0125 µg/mL: [4] | [7]; PCI219 | [9]; [25] | [20]

Cc1c(N2CCNCC2)c(F)cc2c(=O)c(C(=O)O)cn(C3CC3)c12 [Exp. 19, 1-Cyclopropyl-6-fluoro-1,4-dihydro-8-methyl-4-oxo-7-(1-piperazinyl)-3-quinolinecarboxylic acid]
0.2 µg/mL: [3] | C. perfringens KYA 13123 | [11] | S. epidermidis IID 866 | [13] | [16]
0.025 µg/mL: [15] | Shigella sonnei IID 969 | P. mirabilis IID 994
0.05 µg/mL: [4] | [6]; IID977 | [7]; PCI219 | [9]; IID976 | E. coli ATCC 10536 | K. pneumoniae 1-220S | [17] | [20] | [22]
0.125 µg/mL: [5]; read-out: MIC
0.39 µg/mL: P. maltophilia GIFU 2491 | Pst micros UPI 5464-1; [26] | B. fragilis 0558 | [24]; S45 | [18]; KYA10790 | [19] | [21]
6.25 µg/mL: [1]; [27] | C. ramosum; [28] | [23]; [28]
0.78 µg/mL: B. fragilis 25285 | P. aeruginosa IFO 12689 | P. cepacia GIFU 518; aerobic, Gram -, 10^6 cells/ml | [8]; GM7000 | P. aeruginosa IID 1210 | [10]; KYA27337
1.56 µg/mL: B. distasonis 8503; read-out: MIC
3.13 µg/mL: [2] | F. varium KYA 8501
0.1 µg/mL: [12] | [14]
